Consider 15 compounds from patent US10077261B2, “Imidazolin-5-one derivative useful as FASN inhibitors for the treatment of cancer” (Janssen Pharmaceutica NV, priority 2012, dated 2018).

Assay [1] deals with A2780 ovarian cells. The assay is described as follows: A2780 ovarian cell proliferation assay in lipid reduced medium, without palmitate (MTT). It counts as cell-based. The conditions noted are these: Homo sapiens, A2780, 96 h; read-out: pIC50 A2780 Ovarian Cell, Without Palmitate (converted).
The target of assay [2] is T1, hFASN enzyme (full length) (Homo sapiens, UniProt P49327).
T1 construct: 10 μL hFASN enzyme (full length, 300 ng, purified in house); made in house
The assay is described as follows: Fatty Acid Synthase (FASN) inhibition scintillation proximity assay. Conditions: for inhibition at 10 µM: read-out: Human FASN % inhibition @ 10 μM, 10 μM test compound; for IC50: read-out: Human FASN pIC50 (converted). It counts as biochemical. The essentials:
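Full-length in-house purified enzyme (300 ng) was tested in 100 mM KH2PO4 pH 7.5, 1 mM DTT with ³H-acetyl-CoA and malonyl-CoA as substrates; compounds ranged 0.01–30 μM. Reactions were stopped with streptavidin imaging beads, read by LEADseeker at 610 nm, and fitted to a 4-parameter logistic curve.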
Background: SPA uses beads or plates that emit light when radiolabelled molecules are held near them.

For assay [3], the system named is A2780 ovarian cells. The assay is described as follows: A2780 ovarian cell proliferation assay in lipid reduced medium, with palmitate (MTT). The format is cell-based. The conditions noted are these: Homo sapiens, A2780, 96 h; read-out: pIC50 A2780 Ovarian Cell, With Palmitate (converted). The essentials:
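Seeded cells were switched next day to lipid-reduced serum, exposed to compound and 25 μM palmitate complexed with fatty-acid-free BSA, and incubated 96 h. Proliferation was then determined by MTT absorbance at 544 nm, with a best-fit curve of signal against concentration.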

T1 sequence (P49327 whole entry): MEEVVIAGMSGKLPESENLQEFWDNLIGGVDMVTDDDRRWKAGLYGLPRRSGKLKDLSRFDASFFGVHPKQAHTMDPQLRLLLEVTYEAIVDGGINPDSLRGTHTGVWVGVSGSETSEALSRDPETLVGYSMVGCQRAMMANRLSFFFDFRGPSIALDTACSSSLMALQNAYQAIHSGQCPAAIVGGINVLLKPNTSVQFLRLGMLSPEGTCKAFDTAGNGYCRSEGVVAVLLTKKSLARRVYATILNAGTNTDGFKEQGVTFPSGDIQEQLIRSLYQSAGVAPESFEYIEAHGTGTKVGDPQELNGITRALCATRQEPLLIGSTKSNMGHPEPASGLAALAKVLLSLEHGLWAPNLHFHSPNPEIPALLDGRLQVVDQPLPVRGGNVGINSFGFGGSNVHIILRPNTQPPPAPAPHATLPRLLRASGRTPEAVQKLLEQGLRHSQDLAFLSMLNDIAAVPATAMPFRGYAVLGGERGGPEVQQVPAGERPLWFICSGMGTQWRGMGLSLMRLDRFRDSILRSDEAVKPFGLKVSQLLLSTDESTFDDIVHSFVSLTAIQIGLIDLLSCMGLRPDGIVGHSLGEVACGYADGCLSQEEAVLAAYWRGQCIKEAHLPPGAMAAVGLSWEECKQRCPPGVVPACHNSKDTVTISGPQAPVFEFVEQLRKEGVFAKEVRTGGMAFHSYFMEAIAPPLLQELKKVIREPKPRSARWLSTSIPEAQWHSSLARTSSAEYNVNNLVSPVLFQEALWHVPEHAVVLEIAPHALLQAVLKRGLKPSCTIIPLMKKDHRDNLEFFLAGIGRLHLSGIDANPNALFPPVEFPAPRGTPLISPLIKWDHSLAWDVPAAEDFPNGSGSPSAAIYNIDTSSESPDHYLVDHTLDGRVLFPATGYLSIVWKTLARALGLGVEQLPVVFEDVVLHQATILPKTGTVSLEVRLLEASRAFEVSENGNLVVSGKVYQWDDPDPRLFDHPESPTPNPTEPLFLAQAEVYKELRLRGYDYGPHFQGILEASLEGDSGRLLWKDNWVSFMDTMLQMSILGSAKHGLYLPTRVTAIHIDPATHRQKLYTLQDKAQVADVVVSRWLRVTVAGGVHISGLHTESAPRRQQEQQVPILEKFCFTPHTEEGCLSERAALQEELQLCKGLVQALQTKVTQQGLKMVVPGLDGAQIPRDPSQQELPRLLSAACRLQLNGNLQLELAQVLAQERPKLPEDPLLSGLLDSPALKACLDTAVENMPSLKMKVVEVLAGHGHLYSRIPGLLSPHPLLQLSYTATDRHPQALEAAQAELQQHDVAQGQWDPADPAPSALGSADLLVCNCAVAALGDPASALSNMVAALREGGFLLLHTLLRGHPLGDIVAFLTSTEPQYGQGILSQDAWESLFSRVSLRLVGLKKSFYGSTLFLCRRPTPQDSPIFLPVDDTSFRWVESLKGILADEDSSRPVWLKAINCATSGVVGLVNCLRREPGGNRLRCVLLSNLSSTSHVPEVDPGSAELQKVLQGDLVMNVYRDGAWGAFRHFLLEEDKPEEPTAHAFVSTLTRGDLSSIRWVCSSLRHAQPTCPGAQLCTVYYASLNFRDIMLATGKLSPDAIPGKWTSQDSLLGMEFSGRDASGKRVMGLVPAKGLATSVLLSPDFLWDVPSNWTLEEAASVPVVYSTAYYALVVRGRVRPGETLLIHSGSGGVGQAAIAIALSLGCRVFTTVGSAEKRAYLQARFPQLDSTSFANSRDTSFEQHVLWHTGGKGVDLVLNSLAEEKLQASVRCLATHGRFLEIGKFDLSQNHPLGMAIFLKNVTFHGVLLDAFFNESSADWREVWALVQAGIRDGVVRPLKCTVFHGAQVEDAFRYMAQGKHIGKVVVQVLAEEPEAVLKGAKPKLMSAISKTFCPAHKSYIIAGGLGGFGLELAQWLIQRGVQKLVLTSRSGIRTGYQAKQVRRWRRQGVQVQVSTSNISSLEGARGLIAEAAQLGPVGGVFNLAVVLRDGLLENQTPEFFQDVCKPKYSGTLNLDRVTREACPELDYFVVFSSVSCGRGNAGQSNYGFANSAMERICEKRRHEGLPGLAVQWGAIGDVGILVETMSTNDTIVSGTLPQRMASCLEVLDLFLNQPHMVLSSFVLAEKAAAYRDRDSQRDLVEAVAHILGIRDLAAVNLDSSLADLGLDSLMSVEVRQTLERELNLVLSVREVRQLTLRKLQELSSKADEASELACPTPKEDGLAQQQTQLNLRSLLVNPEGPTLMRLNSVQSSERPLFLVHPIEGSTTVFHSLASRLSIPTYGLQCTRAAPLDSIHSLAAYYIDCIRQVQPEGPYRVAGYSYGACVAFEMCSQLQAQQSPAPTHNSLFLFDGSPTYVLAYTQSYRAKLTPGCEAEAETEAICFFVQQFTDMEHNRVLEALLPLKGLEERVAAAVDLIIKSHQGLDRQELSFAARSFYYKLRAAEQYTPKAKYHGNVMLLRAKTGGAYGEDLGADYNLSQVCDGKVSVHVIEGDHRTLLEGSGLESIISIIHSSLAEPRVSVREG

With `Cc1ccc2ccc(-c3ccc(C4=NC5(CC5)C(=O)N4CC4CN(C(=O)C5CC5)C4)c(F)c3)cc2n1` [compound 574, 6-{[1-(Cyclopropylcarbonyl)azetidin-3-yl]methyl}-5-[2-fluoro-4-(2-methylquinolin-7-yl)phenyl]-4,6-diazaspiro[2.4]hept-4-en-7-one], the IC50 in the assay with A2780 ovarian cells [1] was 0.871 µM; in assay [2], 0.813 µM; in the assay on A2780 ovarian cells [3], 5.75 µM. The inhibition (usually the relative decrease from the control value, in per cent) at 10 µM in assay [2] amounted to 82%.
`Cc1ccc2c(-c3ccc(C4=NC5(CC5)C(=O)N4CC4CN(C(=O)C5CC5)C4)c(F)c3)cccc2n1` [compound 575, 6-{[1-(Cyclopropylcarbonyl)azetidin-3-yl]methyl}-5-[2-fluoro-4-(2-methylquinolin-5-yl)phenyl]-4,6-diazaspiro[2.4]hept-4-en-7-one]: the IC50 with A2780 ovarian cells [1] was ~7.94 µM; in assay [2] it was 8.13 µM; in the assay on A2780 ovarian cells [3] it was > 10 µM. For the same compound, the inhibition at 10 µM in assay [2] is 52%.
`Cn1nccc1-c1ccc(-c2ccc(C3=NC4(CC4)C(=O)N3CC3CN(C(=O)C4(O)CC4)C3)c(F)c2)cc1` [compound 577, 5-[3-Fluoro-4′-(1-methyl-1H-pyrazol-5-yl)biphenyl-4-yl]-6-({1-[(1-hydroxycyclopropyl)carbonyl]azetidin-3-yl}methyl)-4,6-diazaspiro[2.4]hept-4-en-7-one]: the results for the IC50 (in the assay on A2780 ovarian cells [1]; in assay [2]; in the assay with A2780 ovarian cells [3]) were 2.45 µM, 2.34 µM and > 10 µM, respectively. Further, in assay [2], the inhibition at 10 µM was found to be 67%.
As to `O=C(O)c1ccc2ccc(-c3ccc(C4=NC5(CC5)C(=O)N4CC4CN(C(=O)C5CC5)C4)cc3)cc2n1` [compound 583, 7-[4-(6-{[1-(Cyclopropylcarbonyl)azetidin-3-yl]methyl}-7-oxo-4,6-diazaspiro[2.4]hept-4-en-5-yl)phenyl]quinoline-2-carboxylic acid], the results for the IC50 (in the assay on A2780 ovarian cells [1]; in assay [2]; in the assay with A2780 ovarian cells [3]) were 2.57 µM, 3.98 µM and > 10 µM, respectively. Besides, the inhibition at 10 µM in assay [2] came to 74%.
The corresponding values for `Cc1cc(-c2ccc3nn(C)c(CO)c3c2)ccc1C1=NC2(CC2)C(=O)N1CC1CN(C(=O)C2CC2)C1` [compound 587, 6-{[1-(Cyclopropylcarbonyl)azetidin-3-yl]methyl}-5-{4-[3-(hydroxymethyl)-2-methyl-2H-indazol-5-yl]-2-methylphenyl}-4,6-diazaspiro[2.4]hept-4-en-7-one] are ~8.51 µM, 3.31 µM, > 10 µM and 70%.
The corresponding values for `COCc1c2cc(-c3ccc(C4=NC5(CC5)C(=O)N4CC4CN(C(=O)C5CC5)C4)c(C)c3)ccc2nn1C` [compound 589, 6-{[1-(Cyclopropylcarbonyl)azetidin-3-yl]methyl}-5-{4-[3-(methoxymethyl)-2-methyl-2H-indazol-5-yl]-2-methylphenyl}-4,6-diazaspiro[2.4]hept-4-en-7-one] are 5.62 µM, 9.55 µM, > 10 µM and 52%.
The corresponding values for `Cc1cc(-c2ccc3c(Cl)nn(C)c3c2)ccc1C1=NC2(CC2)C(=O)N1CC1CN(C(=O)C2CC2)C1` [compound 590, 5-[4-(3-Chloro-1-methyl-1H-indazol-6-yl)-2-methylphenyl]-6-{[1-(cyclopropylcarbonyl)azetidin-3-yl]methyl}-4,6-diazaspiro[2.4]hept-4-en-7-one] are 3.31 µM, 1.74 µM, > 10 µM and 80%.
For `O=C(C1CC1)N1CC(CN2C(=O)C3(CC3)N=C2c2ccc(-c3cc(Cl)c4cn[nH]c4c3)cc2F)C1` [compound 592, 5-[4-(4-Chloro-1H-indazol-6-yl)-2-fluorophenyl]-6-{[1-(cyclopropylcarbonyl)azetidin-3-yl]methyl}-4,6-diazaspiro[2.4]hept-4-en-7-one], the IC50 in the assay on A2780 ovarian cells [1] is 5.25 µM; in assay [2] it was 2.95 µM; in the assay with A2780 ovarian cells [3] it was > 10 µM. Besides, the inhibition at 10 µM in assay [2] is 70%.
For `Cc1cc(-c2ccc(C3(C#N)CC3)cc2F)ccc1C1=NC2(CC2)C(=O)N1CC1CN(C(=O)C2(C)CC2)C1` [compound 593] the same measures were 6.76 µM, 7.08 µM, 9.55 µM and 56%.
On to `Cc1cc(-c2ccc3ccc(Br)cc3n2)ccc1C1=NC2(CC2)C(=O)N1CC1CN(C(=O)C2(C)CC2)C1` [compound 595, 5-[4-(7-Bromoquinolin-2-yl)-2-methylphenyl]-6-({1-[(1-methylcyclopropyl)carbonyl]azetidin-3-yl}methyl)-4,6-diazaspiro[2.4]hept-4-en-7-one], for which the IC50 in the assay on A2780 ovarian cells [1] was 3.24 µM; in assay [2] it was 1.35 µM; with A2780 ovarian cells [3] it was 6.61 µM. Further, in assay [2], the inhibition at 10 µM turned out to be 83%.
For `Cc1cc(Cl)c2ccc(-c3ccc(C4=NC5(CC5)C(=O)N4CC4CN(C(=O)C5(C)CC5)C4)c(C)c3)cc2n1` [compound 597, 5-[4-(4-Chloro-2-methylquinolin-7-yl)-2-methylphenyl]-6-({1-[(1-methylcyclopropyl)carbonyl]azetidin-3-yl}methyl)-4,6-diazaspiro[2.4]hept-4-en-7-one] the same measures were 3.63 µM, ~4.27 µM, 4.37 µM and 65%.
Take `Cc1ccc2c(-c3ccc(C4=NC5(CC5)C(=O)N4CC4CN(C(=O)C5(C)CC5)C4)c(C)c3)cccc2n1` [compound 603, 6-({1-[(1-Methylcyclopropyl)carbonyl]azetidin-3-yl}methyl)-5-[2-methyl-4-(2-methylquinolin-5-yl)phenyl]-4,6-diazaspiro[2.4]hept-4-en-7-one]: the IC50 is ~3.31 µM in the assay with A2780 ovarian cells [1], 1.15 µM in assay [2] and > 10 µM in the assay with A2780 ovarian cells [3]. Besides, the inhibition at 10 µM in assay [2] stood at 87%.
For `Cc1cc(-c2cc(C)c3ccc(Br)cc3n2)ccc1C1=NC2(CC2)C(=O)N1CC1CN(C(=O)C2(C)CC2)C1` [compound 605, 5-[4-(7-Bromo-4-methylquinolin-2-yl)-2-methylphenyl]-6-({1-[(1-methylcyclopropyl)carbonyl]azetidin-3-yl}methyl)-4,6-diazaspiro[2.4]hept-4-en-7-one] the same measures were 4.79 µM, 6.61 µM, 6.31 µM and 62%.
For `Cc1cc(-c2ccc3nn(C)c(C#N)c3c2)ccc1C1=NC2(CC2)C(=O)N1CC1CN(C(=O)C2CC2)C1` [compound 610] the same measures were 2.88 µM, 1.05 µM, 4.57 µM and 87%.
As for `N#Cc1ccc2ccc(-c3ccc(C4=NC5(CC5)C(=O)N4CC4CN(C(=O)C5CC5)C4)cc3)cc2n1` [compound 611, 7-[4-(6-{[1-(Cyclopropylcarbonyl)azetidin-3-yl]methyl}-7-oxo-4,6-diazaspiro[2.4]hept-4-en-5-yl)phenyl]quinolin-2-carbonitrile], the figures for the IC50 (in the assay with A2780 ovarian cells [1]; in assay [2]; in the assay on A2780 ovarian cells [3]) were > 10 µM, ~10 µM and > 10 µM, respectively. In addition, the inhibition at 10 µM in assay [2] came out at 46%.
